Article PMC7035970 (Cell chemical biology, 2019)
In brackets after ≈: the same amount, converted by molar mass. Read-outs that look alike come from different tables or passages of the source.

Experiments:
[1] = for T>MIC: single 25 mg/kg po dose
[2] = Kinetic aqueous solubility; type: physicochemical; settings: universal aqueous buffer, pH 7.4
purified InhA = purified InhA (Mycobacterium tuberculosis, UniProt P9WGR1); test: biochemical; parameters: species or system M. tuberculosis
M. tuberculosis H37Rv [3] = test: MIC, microplate-based Alamar Blue assay; type: cell-based, Mycobacterium tuberculosis
E. faecium = test: MIC versus ESKAPE bacteria: E. faecium; type: cell-based; settings: Enterococcus faecium
[4] = test system: 100 day-old cultures of M. tuberculosis H37Rv; type: cell-based, Mycobacterium tuberculosis
in vivo = settings: female, mouse; for Vd / clearance / half-life: iv, 5 mg/kg
[5] = Human liver microsomal stability; type: in vitro ADME; settings: liver microsomes, pH 7.4
M. tuberculosis H37Rv [6] = type: in vivo; settings: 60 and 200 mg/kg oral daily, after 4 weeks of dosing, Balb/c mice
P aeruginosa = test: MIC versus ESKAPE bacteria: P aeruginosa; type: cell-based
[7] = test system: human cytochrome P450 isoforms; type: in vitro ADME
[8] = Vero cell-based cytotoxicity; settings: African green monkey, Vero cells
Mouse plasma stability = type: in vitro ADME; settings: after 5 h incubation
[9] = test system: FAS-II pathway in M. tuberculosis H37Rv; type: cell-based, Mycobacterium tuberculosis
E. cloacae = test: MIC versus ESKAPE bacteria: E. cloacae; type: cell-based; settings: Enterobacter cloacae
M. tuberculosis fgd1∷tn = test: Griess assay for NO• quantification, fgd1∷tn; type: cell-based, Mycobacterium tuberculosis; settings: 20 μM compound, lower limit of quantification 0.80 μM NO2−
M. tuberculosis H37Rv [10] = test: Griess assay for NO• quantification, H37Rv; type: cell-based, Mycobacterium tuberculosis; settings: 20 μM compound, 5 d exposure, lower limit of quantification 0.80 μM NO2−
[11] = Dose proportionality and tolerability in mice; settings: single dose 300 mg/kg
[12] = Mouse liver microsomal stability; type: in vitro ADME; settings: liver microsomes, pH 7.4
[13] = Chemical stability, degradation to aminotriazine; settings: C-N bond cleavage to aminotriazine JSF-3226, light-dependent
M. tuberculosis H37Rv [14] = settings: cited from earlier work
[15] = test system: M. tuberculosis strain fgd1∷tn; test: MIC versus F420H2 deficient strain fgd1∷tn; type: cell-based, Mycobacterium tuberculosis
M. tuberculosis = test: Minimum bactericidal concentration; type: cell-based, Mycobacterium tuberculosis
[16] = ref Inoyama et al., 2018; cited from earlier work
[17] = Mycobacterium tuberculosis, H37RV

purified InhA, sequence (P9WGR1 whole entry, looked up): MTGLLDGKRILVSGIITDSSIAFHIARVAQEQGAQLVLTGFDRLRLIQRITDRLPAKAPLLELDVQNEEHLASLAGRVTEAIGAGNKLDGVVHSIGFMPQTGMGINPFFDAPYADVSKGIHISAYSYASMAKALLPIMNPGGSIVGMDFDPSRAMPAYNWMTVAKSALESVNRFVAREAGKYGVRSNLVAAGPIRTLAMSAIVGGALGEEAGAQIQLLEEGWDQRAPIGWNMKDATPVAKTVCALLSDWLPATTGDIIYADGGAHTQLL

Structure (SMILES) | T>MIC ([1]; mouse) [h] | solubility at 4 h [2] [µM] | MIC (M. tuberculosis H37Rv [3]; [17]) [µM] | reduction in colony-forming units (CFUs) [4] | Vd (in vivo) [L/kg] | clearance (in vivo) [mL/min/kg] | half-life (in vivo) [min] | AUC(0-t) (in vivo; po, 25 mg/kg) [ng·h/mL] | Cmax (in vivo; po, 25 mg/kg) [ng/mL] | bioavailability (in vivo; po, 25 mg/kg) [%] | FAMEs and MAMEs profile by TLC [9] | Kp at 5 h (in vivo; 25 mg/kg) | half-life [12] [min] | other results
O=[N+]([O-])c1ccc(/C=N/Nc2nc(Nc3ccccc3)nc(N3CCOCC3)n2)o1 [JSF-2513, (E)-4-morpholino-6-(2-((5-nitrofuran-2-yl)methylene)hydrazineyl)-N-phenyl-1,3,5-triazin-2-amine] | 8 to 24 | 0.853 (≈ 0.35 µg/mL) | 0.63 (≈ 0.259 µg/mL) | ca. 7 log10 | 1.38 | 37.2 | 25.8 | 12000 | 1710 | ≥ 99 | depletion of MAMEs and accumulation of precursor FAMEs |  |  | level in the mouse lungs ([1]; 5 h post a single 25 mg/kg dose, limit of quantification 25 ng/mL): near the limit of quantification; Clung/Cplasma at 5 h ([1]; mouse): BLQ; IC50 (purified InhA; InhA IC50): > 150 µM; MIC (E. faecium): 15 µM (≈ 6.16 µg/mL); half-life [5]: 61.7 min; microsomal CLint [5]: 11.2 µL/min/mg; M. tuberculosis CFUs in mouse lungs and spleen versus vehicle (M. tuberculosis H37Rv [6]): failed to demonstrate a reduction in M. tuberculosis CFUs; MIC (P aeruginosa): > 120 µM; inhibition of human cytochrome P450 isoforms [7]: did not significantly inhibit; CC50 [8]: 3.9 µM; stability in mouse plasma, compound remaining (Mouse plasma stability): satisfactory stabilities in mouse plasma; MIC (E. cloacae): > 120 µM; NO• release quantified as nitrite (M. tuberculosis fgd1∷tn): abolished; NO• release quantified as nitrite (M. tuberculosis H37Rv [10]): in a lesser amount than JSF-2019; tolerability in mice [11]: lethargy
CC1(Nc2nc(N/N=C/c3ccc([N+](=O)[O-])o3)nc(N3CCOCC3)n2)CC1 [JSF-2625, (E)-N-(1-methylcyclopropyl)-4-morpholino-6-(2-((5-nitrofuran-2-yl)methylene)hydrazineyl)-1,3,5-triazin-2-amine] | 1 to 3 | 8.71 (≈ 3.38 µg/mL) | 0.25 (≈ 0.0971 µg/mL) |  | 1.44 | 88 | 11.4 | 538 | 266 | 11.4 |  | 0.3 | 56.4 | stability in mouse plasma, aqueous DMSO, or aqueous CH3CN [13]: found to degrade
O=[N+]([O-])c1ccc(/C=N/Nc2nc(N3CCC3)nc(N3CCOCC3)n2)o1 [JSF-2619, (E)-4-(4-(azetidin-1-yl)-6-(2-((5-nitrofuran-2-yl)methylene)hydrazineyl)-1,3,5-triazin-2-yl)morpholine] | 3 to 5 |  |  |  | 1.91 | 61.7 | 21.6 | 7640 | 4200 | 49.2 |  | 0.23 |  | stability in mouse plasma, compound remaining (Mouse plasma stability): satisfactory stabilities in mouse plasma
NNC(=O)c1ccncc1 [INH, reference compound] |  |  | 0.16 (≈ 0.0219 µg/mL) |  |  |  |  |  |  |  | reduction of mycolic acids |  |  | 
O=[N+]([O-])c1ccc(/C=N/Nc2nc(Nc3ccccc3)nc(Nc3ccccc3)n2)o1 [JSF-2019, (E)-6-(2-((5-nitrofuran-2-yl)methylene)hydrazinyl)-N2,N4-diphenyl-1,3,5-triazine-2,4-diamine] | 5.0 |  | 0.078 (≈ 0.0325 µg/mL) | ~4 log10 |  |  |  | 1150 | 317 |  |  | 2.6 | 63.6 | IC50 (purified InhA; InhA IC50, in the presence of 1% CMC Tween-20): 24 ± 3.6 µM; IC50 (purified InhA; InhA IC50, without added detergent, substrate 2-dodecenoyl-CoA, NADH): 20 ± 2.4 µM; AUC (in vivo; po, 25 mg/kg): 1150 ng·h/mL; MIC (minimum concentration to inhibit 90% of bacterial growth) (M. tuberculosis H37Rv [14]; ref Ekins et al., 2013): 0.15 µM; MIC shift / loss of susceptibility, fgd1∷tn versus H37Rv [15]: 17 fold; FAMEs and MAMEs profile by TLC ([9]; […], INH and pretomanid at 10x MIC, JSF-2019 and JSF-2513 1 – 40x MIC): accumulation of FAMEs and decrease of MAMEs; MBC (lowest concentration to reduce the bacterial population by 2 log10) (M. tuberculosis): 600 – 1200 nM; aqueous solubility S [16]: < 0.060 µM; NO• release quantified as nitrite (M. tuberculosis fgd1∷tn): not discernible; NO• release quantified as nitrite (M. tuberculosis H37Rv [10]): smaller yet quantifiable NO• release compared to pretomanid
O=[N+]([O-])c1cn2c(n1)OC[C@@H](OCc1ccc(OC(F)(F)F)cc1)C2 [Pretomanid, reference compound] |  |  | 0.039 (≈ 0.014 µg/mL) | 6 log10 |  |  |  |  |  |  | decrease of MAMEs |  |  | MIC (M. tuberculosis H37Rv [3]; H37Rv): 0.078 µM (≈ 0.028 µg/mL)
FC(F)(F)Oc1ccc(CO[C@@H]2COc3nccn3C2)cc1 [des-nitro pretomanid, reference compound] |  |  |  |  |  |  |  |  |  |  |  |  |  | whole-cell efficacy (M. tuberculosis H37Rv [14]; ref Singh et al., 2008): lack quantifiable whole-cell efficacy
O=[N+]([O-])c1ccc(/C=N/Nc2nc(N3CCOCC3)nc(N3CCOCC3)n2)o1 [JSF-2189, (E)-4,4'-(6-(2-((5-nitrofuran-2-yl)methylene)hydrazineyl)-1,3,5-triazine-2,4-diyl)dimorpholine] |  | 20.2 (≈ 8.17 µg/mL) | 7.8 (≈ 3.15 µg/mL) |  |  |  |  |  |  |  |  |  | 68 | 
